Test results as given in patent US11957671B2, “Benzodioxane modulators of leukotriene A4 hydrolase (LTA4H) for prevention and treatment of aging-associated diseases” (Alkahest, Inc., priority 2021, dated 2024).

These molecules were tested on synthesis of LTB4 in human whole blood (assay: human whole blood (HWB) assay, LTB4 production inhibition). Conditions: calcimycin 20 μM.
Type: cell-based
Experimental: The compounds of the invention are additionally tested in a human whole blood (HWB) assay to determine their ability to inhibit the synthesis of LTB4 in a cellular system. Compounds are combined with heparinized human whole blood and incubated for 15 minutes at 37° C. Calcimycin (20 μM final, prepared in phosphate-buffered saline, pH 7.4) is then added and the mixture is incubated for another 30 minutes at 37° C. The samples are centrifuged for 5 min at low speed (1500×g) and the plasma layer is removed. Plasma LTB4 concentrations are then measured using an antibody-based homogenous time-resolved fluorescence method (CisBio, Bedford, Mass.). In general, the preferred potency range (IC50) of compounds in the HWB assay is between 10 nM to 10 μM, the more preferred potency range is 10 nM to 1 μM, and the most preferred potency range is 10 nM to 100 nM.

Compound | IC50
O=C1CCCN1CC1CCCN(Cc2ccc(C3COc4ccccc4O3)cc2)C1 (racemic) [Example 10, 1-({1-[4-(2,3-dihydro-1,4-benzodioxin-2-yl)benzyl]piperidin-3-yl}methyl)pyrrolidin-2-one] | 352 nM
c1cnc2c(c1)OCC(c1ccc(CN3CCOCC3)cc1)O2 (racemic) [Example 18, 3-[4-(morpholin-4-ylmethyl)phenyl]-2,3-dihydro[1,4]dioxino[2,3-b]pyridine] | 176 nM
CNC(=O)C1CCN(Cc2ccc(C3COc4ccccc4O3)cc2)CC1 (racemic) [Example 25, 1-[4-(2,3-dihydro-1,4-benzodioxin-2-yl)benzyl]-N-methylpiperidine-4-carboxamide] | 294 nM
O=C(O)CCCC1CCN(Cc2ccc(C3COc4ccccc4O3)cc2)CC1 (racemic) [Example 26, 4-{1-[4-(2,3-dihydro-1,4-benzodioxin-2-yl)benzyl]piperidin-4-yl}butanoic acid] | 308 nM
O=C(C1CCN(Cc2ccc(C3COc4ccccc4O3)cc2)CC1)N1CCOCC1 (racemic) [Example 37, {1-[4-(2,3-dihydro-1,4-benzodioxin-2-yl)benzyl]piperidin-4-yl}(morpholin-4-yl)methanone] | 324 nM
O=C(NCCO)C1CCN(Cc2ccc(C3COc4ccccc4O3)cc2)CC1 (racemic) [Example 52, 1-[4-(2,3-dihydro-1,4-benzodioxin-2-yl)benzyl]-N-(2-hydroxyethyl)piperidine-4-carboxamide] | 145 nM
NC(=O)NC1CCN(Cc2ccc(C3COc4ccccc4O3)cc2)CC1 (racemic) [Example 53, 1-{1-[4-(2,3-dihydro-1,4-benzodioxin-2-yl)benzyl]piperidin-4-yl}urea] | 155 nM
O[C@H]1CCN(Cc2ccc(C3COc4ccccc4O3)cc2)C1 (stereo partly drawn) [Example 9, (3S)-1-[4-(2,3-dihydro-1,4-benzodioxin-2-yl)benzyl]pyrrolidin-3-ol] | 285 nM
O=C(O)C1CCN(Cc2ccc([C@H]3COc4ccccc4O3)cc2)C1 (stereo partly drawn) [Example 61, 1-{4-[(2S)-2,3-dihydro-1,4-benzodioxin-2-yl]benzyl}pyrrolidine-3-carboxylic acid] | 250 nM
CC(=O)N1CC[C@@H](NCc2ccc([C@H]3COc4ccccc4O3)cc2)C1 [Example 64, 1-[(3R)-3-({4-[(2S)-2,3-dihydro-1,4-benzodioxin-2-yl]benzyl}amino)pyrrolidin-1-yl]ethanone] | 158 nM
CN(Cc1ccc([C@H]2COc3ccccc3O2)cc1)C1CCCCC1 [Example 67, N-{4-[(2S)-2,3-dihydro-1,4-benzodioxin-2-yl]benzyl}-N-methylcyclohexanamine] | 346 nM
CC1CCCCN1Cc1ccc([C@H]2COc3ccccc3O2)cc1 (stereo partly drawn) [Example 68, 1-{4-[(2S)-2,3-dihydro-1,4-benzodioxin-2-yl]benzyl}-2-methylpiperidine] | 80.7 nM
OCC1CCCN(Cc2ccc([C@H]3COc4ccccc4O3)cc2)C1 (stereo partly drawn) [Example 69, (1-{4-[(2S)-2,3-dihydro-1,4-benzodioxin-2-yl]benzyl}piperidin-3-yl)methanol] | 165 nM
CN(Cc1ccc([C@H]2COc3ccccc3O2)cc1)C(C)(C)C [Example 81, N-{4-[(2S)-2,3-dihydro-1,4-benzodioxin-2-yl]benzyl}-N,2-dimethylpropan-2-amine] | 80.7 nM
CC(=O)N(C)C1CCN(Cc2ccc([C@H]3COc4ccccc4O3)cc2)C1 (stereo partly drawn) [Example 83, N-(1-{4-[(2S)-2,3-dihydro-1,4-benzodioxin-2-yl]benzyl}pyrrolidin-3-yl)-N-methylacetamide] | 33.5 nM
c1ccc2c(c1)OC[C@H](c1ccc(CN3CCC[C@H]4CCCC[C@@H]43)cc1)O2 [Example 85, (4aR,8aS)-1-{4-[(2S)-2,3-dihydro-1,4-benzodioxin-2-yl]benzyl}decahydroquinoline] | 305 nM
OC[C@H]1CCCC[C@H]1NCc1ccc([C@H]2COc3ccccc3O2)cc1 [Example 87, [(1S,2R)-2-({4-[(2S)-2,3-dihydro-1,4-benzodioxin-2-yl]benzyl)amino)cyclohexyl] methanol] | 268 nM
COC1CCN(Cc2ccc([C@H]3COc4ccccc4O3)cc2)CC1 [Example 98, 1-{4-[(2S)-2,3-dihydro-1,4-benzodioxin-2-yl]benzyl}-4-methoxypiperidine] | 180 nM
O=C1CCCN1CC1CCN(Cc2ccc([C@H]3COc4ccccc4O3)cc2)CC1 [Example 99, 1-[(1-{4-[(2S)-2,3-dihydro-1,4-benzodioxin-2-yl]benzyl}piperidin-4-yl)methyl]pyrrolidin-2-one] | 95.4 nM
CCN(Cc1ccc([C@H]2COc3ccccc3O2)cc1)C1CCCC1 [Example 109, N-{4-[(2S)-2,3-dihydro-1,4-benzodioxin-2-yl]benzyl}-N-ethylcyclopentanamine] | 75.5 nM

Compound | IC50
O=C1NCCCC12CCN(Cc1ccc([C@H]3COc4ccccc4O3)cc1)CC2 [Example 116, 9-{4-[(2S)-2,3-dihydro-1,4-benzodioxin-2-yl]benzyl}-2,9-diazaspiro[5.5]undecan-1-one] | 310 nM
CC(=O)N1CCCC12CCN(Cc1ccc([C@H]3COc4ccccc4O3)cc1)C2 (stereo partly drawn) [Example 118, 1-(7-{4-[(2S)-2,3-dihydro-1,4-benzodioxin-2-yl]benzyl}-1,7-diazaspiro[4.4]non-1-yl)ethanone] | 256 nM
CN1CCC2(CCN(Cc3ccc([C@H]4COc5ccccc5O4)cc3)CC2)C1=O [Example 121, 8-{4-[(2S)-2,3-dihydro-1,4-benzodioxin-2-yl]benzyl}-2-methyl-2,8-diazaspiro[4.5]decan-1-one] | 159 nM
NC(=O)CN1CCCC12CCN(Cc1ccc([C@H]3COc4ccccc4O3)cc1)C2 (stereo partly drawn) [Example 123, 2-(7-{4-[(2S)-2,3-dihydro-1,4-benzodioxin-2-yl]benzyl}-1,7-diazaspiro[4.4]non-1-yl)acetamide] | 312 nM
O=C1NCCC12CCN(Cc1ccc([C@H]3COc4cccnc4O3)cc1)CC2 [Example 125, 8-{4-[(3S)-2,3-dihydro[1,4]dioxino[2,3-b]pyridin-3-yl]benzyl}-2,8-diazaspiro[4.5]decan-1-one] | 39.2 nM
c1cnc2c(c1)OC[C@H](c1ccc(CN3CCCC3)cc1)O2 [Example 126, (3S)-3-[4-(pyrrolidin-1-ylmethyl)phenyl]-2,3-dihydro[1,4]dioxino[2,3-b]pyridine] | 32.3 nM
O=C(O)CCC1CCN(Cc2ccc([C@H]3COc4ccccc4O3)cc2)CC1 [Example 134, 3-(1-{4-[(2S)-2,3-dihydro-1,4-benzodioxin-2-yl]benzyl}piperidin-4-yl)propanoic acid] | 94.6 nM
CC1CCN(Cc2ccc([C@H]3COc4cccnc4O3)cc2)CC1 [Example 137, (3S)-3-{4-[(4-methylpiperidin-1-yl)methyl]phenyl}-2,3-dihydro[1,4]dioxino[2,3-b]pyridine] | 27.6 nM
CN(CCc1ccccn1)Cc1ccc([C@H]2COc3cccnc3O2)cc1 [Example 138, N-{4-[(3S)-2,3-dihydro[1,4]dioxino[2,3-b]pyridin-3-yl]benzyl}-N-methyl-2-(pyridin-2-yl)ethanamine] | 76 nM
c1cnc2c(c1)OC[C@H](c1ccc(CN3CCCCCC3)cc1)O2 [Example 139, (3S)-3-[4-(azepan-1-ylmethyl)phenyl]-2,3-dihydro[1,4]dioxino[2,3-b]pyridine] | 13.2 nM
CCN(C)Cc1ccc([C@H]2COc3cccnc3O2)cc1 [Example 140, N-{4-[(3S)-2,3-dihydro[1,4]dioxino[2,3-b]pyridin-3-yl]benzyl}-N-methylethanamine] | 33.4 nM
CCN(CC)Cc1ccc([C@H]2COc3cccnc3O2)cc1 [Example 141, N-{4-[(3S)-2,3-dihydro[1,4]dioxino[2,3-b]pyridin-3-yl]benzyl}-N-ethylanamine] | 32.8 nM
CN(Cc1ccc([C@H]2COc3cccnc3O2)cc1)C1CCCC1 [Example 142, N-{4-[(3S)-2,3-dihydro[1,4]dioxino[2,3-b]pyridin-3-yl]benzyl}-N-methylcyclopentanamine] | 24.4 nM
c1cnc2c(c1)OC[C@H](c1ccc(CN3[C@H]4CC[C@@H]3CC4)cc1)O2 [Example 145, (3S)-3-{4-[(1s,4s)-7-azabicyclo[2.2.1]hept-7-ylmethyl]phenyl}-2,3-dihydro[1,4]dioxino[2,3-b]pyridine] | 28.4 nM
FC1CCN(Cc2ccc([C@H]3COc4cccnc4O3)cc2)CC1 [Example 155, (3S)-3-{4-[(4-fluoropiperidin-1-yl)methyl]phenyl}-2,3-dihydro[1,4]dioxino[2,3-b]pyridine] | 95.4 nM
c1cnc2c(c1)OC[C@H](c1ccc(CN3CCn4cnnc4C3)cc1)O2 [Example 156, (3S)-3-[4-(5,6-dihydro[1,2,4]triazolo[4,3-a]pyrazin-7(8H)-ylmethyl)phenyl]-2,3-dihydro[1,4]dioxino[2,3-b]pyridine] | 159 nM
CC(C)(CN1CCCC1)NCc1ccc([C@H]2COc3cccnc3O2)cc1 [Example 157, N-{4-[(3S)-2,3-dihydro[1,4]dioxino[2,3-b]pyridin-3-yl]benzyl}-2-methyl-1-(pyrrolidin-1-yl)propan-2-amine] | 35 nM
COC1CCCN(Cc2ccc([C@H]3COc4cccnc4O3)cc2)C1 (stereo partly drawn) [Example 158, (3S)-3-{4-[(3-methoxypiperidin-1-yl)methyl]phenyl}-2,3-dihydro[1,4]dioxino[2,3-b]pyridine] | 27.5 nM
CC(=O)NC1CCN(Cc2ccc([C@H]3COc4cccnc4O3)cc2)CC1 [Example 160, N-(1-{4-[(3S)-2,3-dihydro[1,4]dioxino[2,3-b]pyridin-3-yl)benzyl}piperidin-4-yl)acetamide] | 28 nM
COC1CCN(Cc2ccc([C@H]3COc4cccnc4O3)cc2)C1 (stereo partly drawn) [Example 168, (3S)-3-{4-[(3-methoxypyrrolidin-1-yl)methyl]phenyl}-2,3-dihydro[1,4]dioxino[2,3-b]pyridine] | 39 nM
